Reference: patent US8546579B2, “Bicycloheteroaryl compounds as P2X7 modulators and uses thereof” (Evotec (US) Inc., priority 2006, dated 2013)

Target: T1, P2X7 receptor (Homo sapiens, UniProt Q99572)
T1 construct: host or cells: THP-1 cells differentiated with LPS and IFN-γ
T1 sequence (Q99572 1-595): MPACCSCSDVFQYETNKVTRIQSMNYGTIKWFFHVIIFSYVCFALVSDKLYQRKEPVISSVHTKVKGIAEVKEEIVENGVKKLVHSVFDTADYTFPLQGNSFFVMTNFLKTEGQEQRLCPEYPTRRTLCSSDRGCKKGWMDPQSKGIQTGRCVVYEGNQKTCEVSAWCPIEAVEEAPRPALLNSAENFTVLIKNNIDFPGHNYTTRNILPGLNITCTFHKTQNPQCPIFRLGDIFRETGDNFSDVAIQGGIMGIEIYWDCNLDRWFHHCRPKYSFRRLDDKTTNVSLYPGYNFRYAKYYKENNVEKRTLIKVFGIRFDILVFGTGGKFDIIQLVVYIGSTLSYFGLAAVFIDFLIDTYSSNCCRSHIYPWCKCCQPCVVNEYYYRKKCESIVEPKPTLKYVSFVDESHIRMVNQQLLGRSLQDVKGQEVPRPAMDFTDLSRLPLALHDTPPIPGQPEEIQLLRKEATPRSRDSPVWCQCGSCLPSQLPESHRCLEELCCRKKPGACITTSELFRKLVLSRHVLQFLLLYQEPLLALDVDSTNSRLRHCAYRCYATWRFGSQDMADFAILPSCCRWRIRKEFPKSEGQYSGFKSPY
Experiment: IL-1β release assay in differentiated THP-1 cells stimulated with BzATP (Example 9)
Type: cell-based
Set-up: inhibition: dose or concentration left out as unconfirmed
Details: 0.1 μM compound; differentiated THP-1 cells, BzATP 250 uM; "*" class symbols; read-out: IL-1β % Inhib. ("*" symbols: at 0.1 μM)
Summary of the method: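 THP-1 cells differentiated 16 h with LPS and IFN-γ (100 ng/mL each), re-primed 2 h with LPS, then compound-pretreated 30 min before 250 uM BzATP for 45 min. Supernatant IL-1β quantified by ELISA; background-adjusted percent inhibition fitted to four-parameter logistic for IC50.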

Inhibition at 0.1 µM, 0 to 25%:
Cc1cccc(CCC(=O)Nc2cccc3c(=O)n(Cc4ccc(OC(F)(F)F)cc4)ccc23)c1 [Compound 1606]
CCOc1ccccc1CC(=O)Nc1cccc2c(=O)n(Cc3ccc(OC(F)(F)F)cc3)ccc12 [Compound 1604]

Same assay, conditions: 0.1 μM compound; differentiated THP-1 cells, BzATP 250 uM; '*' class symbols; read-out: IL-1β % Inhib. (asterisk classes, 0.1 μM)

Inhibition at 0.1 µM, 0 to 25%:
Cc1cccc(C(=O)Nc2cccc3c(=O)n(CCN4CCOCC4)ccc23)c1 [Compound 1197]
COCCn1ccc2c(NC(=O)CCc3cccc(OC)c3)cccc2c1=O [Compound 1064]

Same assay, conditions: 0.1 μM compound; differentiated THP-1 cells, BzATP 250 uM; symbols * to ****; read-out: IL-1β % Inhib. (asterisk symbols: at 0.1 μM)

Inhibition at 0.1 µM, 0 to 25%:
COc1ccc(C(=O)Nc2cccc3c(=O)n(CC4CCOCC4)ccc23)c(C)c1 [Compound 1394]
CCOc1ccc(C(=O)Nc2cccc3c(=O)n(CCN(C)C)ccc23)c(O)c1 [Compound 1397]
COc1cc(OC)cc(C(=O)Nc2cccc3c(=O)n(C)ccc23)c1 [Compound 1290]

Same assay, conditions: 0.3 μM compound; differentiated THP-1 cells, BzATP 250 uM; "+" class symbols; read-out: IL-1β % Inhib. @ 0.3 μM

Inhibition at 0.3 µM, 0 to 25%:
CN(C)CCn1ccc2c(NC(=O)Cc3ccccc3Br)cccc2c1=O [Compound 1613]

Same assay, conditions: 0.3 μM compound; differentiated THP-1 cells, BzATP 250 uM; '+' class symbols; read-out: IL-1β % Inhib. @ 0.3 μM

Inhibition at 0.3 µM, 51 to 75%:
COc1ccc(CC(=O)Nc2cccc3c(=O)n(CCN(C)C)ccc23)cc1 [Compound 1001]
CN(C)CCn1ccc2c(NC(=O)CCc3cccc(Cl)c3)cccc2c1=O [Compound 1186]

Inhibition at 0.3 µM, 0 to 25%:
CCOc1ccc(CC(=O)Nc2cccc3c(=O)n(CCN(C)C)ccc23)cc1 [Compound 1160]
CC(C)Cc1ccc(C(=O)Nc2cccc3c(=O)n(CCN(C)C)ccc23)cc1 [Compound 1187]
Cc1ccc(CCC(=O)Nc2cccc3c(=O)n(CC4CCOCC4)ccc23)c(C)c1 [Compound 1134]
O=C(CCc1cccc(Cl)c1)Nc1cccc2c(=O)n(CC3CCOCC3)ccc12 [Compound 1135]
O=C(Nc1cccc2c(=O)n(CC3CCOCC3)ccc12)c1cc(Cl)ccc1Cl [Compound 1084]
Cc1cc(C(=O)Nc2cccc3c(=O)n(CC(C)(C)C)ccc23)ccc1Cl [Compound 1056]
CC(C)(C)Cn1ccc2c(NC(=O)CCc3ccccc3Cl)cccc2c1=O [Compound 1054]
O=C(CCc1ccc(Cl)cc1)Nc1cccc2c(=O)n(CC3CCOCC3)ccc12 [Compound 1125]
Cc1ccc(CC(=O)Nc2cccc3c(=O)n(CC4CCOCC4)ccc23)cc1 [Compound 1107]
COc1c(C)cc(C(=O)Nc2cccc3c(=O)n(CCN(C)C)ccc23)cc1C [Compound 1165]
O=C(Nc1cccc2c(=O)n(CC3CCOCC3)ccc12)C1C[C@@H]2CC[C@H]1C2 (stereo partly drawn) [Compound 1122]
CN(C)CCn1ccc2c(NC(=O)Cc3ccccc3Cl)cccc2c1=O [Compound 1155]
CN(C)CCn1ccc2c(NC(=O)c3cc(Cl)cc(Cl)c3)cccc2c1=O [Compound 1143]
O=C(CCc1ccc2c(c1)OCO2)Nc1cccc2c(=O)n(CCN3CCOCC3)ccc12 [Compound 1046]
CCC(C(=O)Nc1cccc2c(=O)n(CCN(C)C)ccc12)c1ccccc1 (stereo not drawn) [Compound 1020]
Cc1cc(C)cc(CC(=O)Nc2cccc3c(=O)n(CCN(C)C)ccc23)c1 [Compound 1173]
COc1ccccc1CCC(=O)Nc1cccc2c(=O)n(CC3CCOCC3)ccc12 [Compound 1094]

Inhibition at 0.3 µM, ≥ 76%:
Cc1ccc(CC(=O)Nc2cccc3c(=O)n(CCN(C)C)ccc23)cc1 [Compound 1005]
O=C(CC1CCCCCC1)Nc1cccc2c(=O)n(Cc3ccc4c(c3)OCCO4)ccc12 [Compound 1013, 2-Cycloheptyl-N-[2-(2,3-dihydro-benzo[1,4]dioxin-6-ylmethyl)-1-oxo-1,2-dihydro-isoquinolin-5-yl]-acetamide]

Inhibition at 0.3 µM, 26 to 50%:
O=C(CC1C[C@@H]2CC[C@H]1C2)Nc1cccc2c(=O)n(CC3CCOCC3)ccc12 (stereo partly drawn) [Compound 1115]
COCCn1ccc2c(NC(=O)c3ccc(OC)c(Cl)c3)cccc2c1=O [Compound 1067]
CN(C)CCn1ccc2c(NC(=O)CC3CC4CC[C@H]3C4)cccc2c1=O (stereo partly drawn) [Compound 1167]

Same assay, conditions: 0.3 μM compound; differentiated THP-1 cells, BzATP 250 uM; symbols + to ++++; read-out: IL-1β % Inhib. @ 0.3 μM

Inhibition at 0.3 µM, 51 to 75%:
CC(=O)OCCn1ccc2c(NC(=O)Cc3cc(C(F)(F)F)cc(C(F)(F)F)c3)cccc2c1=O [Compound 1378]

Inhibition at 0.3 µM, ≥ 76%:
CC(=O)OCCn1ccc2c(NC(=O)Cc3ccc(Cl)cc3Cl)cccc2c1=O [Compound 1381]

Inhibition at 0.3 µM, 0 to 25%:
COc1cccc(CC(=O)Nc2cccc3c(=O)n(CCN4CCOCC4)ccc23)c1 [Compound 1209]
COc1ccc(CC(=O)Nc2cccc3c(=O)n(Cc4cccnc4)ccc23)cc1C [Compound 1367]
COc1ccc(CC(=O)Nc2cccc3c(=O)n(CC(C)(C)C)ccc23)cc1 [Compound 1260]
COCCn1ccc2c(NC(=O)c3cccc(Cl)c3C)cccc2c1=O [Compound 1330]
COCCn1ccc2c(NC(=O)CCc3cccc(C)c3)cccc2c1=O [Compound 1338]
Cc1c(Cl)cccc1C(=O)Nc1cccc2c(=O)n(CCN3CCOCC3)ccc12 [Compound 1227]
COc1cccc(CC(=O)Nc2cccc3c(=O)n(Cc4cccnc4)ccc23)c1 [Compound 1353]
Cc1ccc(Cl)cc1C(=O)Nc1cccc2c(=O)n(Cc3cccnc3)ccc12 [Compound 1368]
Cc1cc(C(=O)Nc2cccc3c(=O)n(CC(C)(C)C)ccc23)ccc1F [Compound 1279]
O=C(Nc1cccc2c(=O)n(CCN3CCOCC3)ccc12)[C@@]12C[C@@H]3C[C@@H](C[C@@H]1C3)C2 [Compound 1223]
COCCn1ccc2c(NC(=O)Cc3ccc(OC)c(OC)c3)cccc2c1=O [Compound 1314]
COc1ccccc1CCC(=O)Nc1cccc2c(=O)n(CC(C)(C)C)ccc12 [Compound 1248]
Cc1cc(Cl)ccc1C(=O)Nc1cccc2c(=O)n(CCN3CCOCC3)ccc12 [Compound 1221]

Same assay, conditions: THP-1; read-out: IL-1β % Inhib.

inhibition, 26 to 50%:
CCOc1ccccc1CC(=O)Nc1cccc2c(=O)n(CCCN3CCCC3=O)ccc12 [Compound 1538]

inhibition, 0 to 25%:
CC(C(=O)Nc1cccc2c(=O)n(CCCN3CCCC3=O)ccc12)c1ccccc1 (stereo not drawn) [Compound 1517]
Cc1ccc(C)c(CC(=O)Nc2cccc3c(=O)n(CCCN4CCCC4=O)ccc23)c1 [Compound 1499]
COc1ccc(CC(=O)Nc2cccc3c(=O)n(CC4CCN(C)CC4)ccc23)c(OC)c1 [Compound 1484]
O=C(CCc1ccccc1Cl)Nc1cccc2c(=O)n(CCCN3CCCC3=O)ccc12 [Compound 1501]
CC(C)(C)Cn1ccc2c(NC(=O)c3cc(Cl)ccc3Cl)cccc2c1=O [Compound 1412]
O=C(Cc1ccccc1Cl)Nc1cccc2c(=O)n(Cc3ccc(OC(F)(F)F)cc3)ccc12 [Compound 1576]
O=C(Nc1cccc2c(=O)n(Cc3ccc(OC(F)(F)F)cc3)ccc12)c1cc2ccccc2o1 [Compound 1587]
Cc1ccc(C(=O)Nc2cccc3c(=O)n(CCCN4CCCC4=O)ccc23)c(C)c1 [Compound 1509]
CN1CCC(Cn2ccc3c(NC(=O)CCc4ccc(Cl)cc4)cccc3c2=O)CC1 [Compound 1485]
Cc1ccccc1CCC(=O)Nc1cccc2c(=O)n(CCCN3CCCC3=O)ccc12 [Compound 1495]
Cc1ccccc1C(=O)Nc1cccc2c(=O)n(CC(C)(C)C)ccc12 [Compound 1413]
Cc1cc(C)c(CC(=O)Nc2cccc3c(=O)n(Cc4ccc(OC(F)(F)F)cc4)ccc23)c(C)c1 [Compound 1553]
Cc1cc(Cl)ccc1C(=O)Nc1cccc2c(=O)n(CC3CCN(C)CC3)ccc12 [Compound 1478]
COc1ccc(CCC(=O)Nc2cccc3c(=O)n(CC4CCN(C)CC4)ccc23)cc1 [Compound 1468]

Same assay, conditions: THP-1 cells, BzATP-stimulated IL-1β release, four parameter logistic fit

IC50, 0.121 µM:
CC(=O)OCCn1ccc2c(NC(=O)Cc3cc(C(F)(F)F)cc(C(F)(F)F)c3)cccc2c1=O [Compound 1378]

IC50, 0.0396 µM:
Cc1ccc(CC(=O)Nc2cccc3c(=O)n(CCN(C)C)ccc23)cc1 [Compound 1005]

IC50, 0.0341 µM:
CC(=O)OCCn1ccc2c(NC(=O)Cc3ccc(Cl)cc3Cl)cccc2c1=O [Compound 1381]

IC50, > 1 µM:
CN(C)CCn1ccc2c(NC(=O)Cc3ccccc3Br)cccc2c1=O [Compound 1613]
CCC(C(=O)Nc1cccc2c(=O)n(CCN(C)C)ccc12)c1ccccc1 (stereo not drawn) [Compound 1020]

IC50, 0.24 µM:
COc1ccc(CC(=O)Nc2cccc3c(=O)n(CCN(C)C)ccc23)cc1 [Compound 1001]

IC50, 0.000355 µM:
O=C(CC1CCCCCC1)Nc1cccc2c(=O)n(Cc3ccc4c(c3)OCCO4)ccc12 [Compound 1013, 2-Cycloheptyl-N-[2-(2,3-dihydro-benzo[1,4]dioxin-6-ylmethyl)-1-oxo-1,2-dihydro-isoquinolin-5-yl]-acetamide]
